From patent publication US8076352B2, “Administration of carboline derivatives useful in the treatment of cancer and other diseases” (PTC Therapeutics, Inc., priority 2004, dated 2011)

What follows are molecules tested on hypoxia-inducible endogenous VEGF expression in HeLa cells (assay: Hypoxia-inducible endogenous VEGF expression, VEGF ELISA of conditioned media (dose-response EC50)). Conditions: HeLa cells under hypoxic conditions.
Assay type: cell-based
Method: The ability of the compounds of the invention to modulate hypoxia-inducible endogenous VEGF expression may be analyzed as follows. VEGF protein levels may be monitored by an ELISA assay (R&D Systems). Briefly, HeLa cells may be cultured for 24-48 hours under hypoxic conditions (1% O2, 5% CO2, balanced with nitrogen) in the presence or absence of a compound of the invention. The conditioned media may then be assayed by ELISA, and the concentration of VEGF calculated from the standard ELISA curve of each assay.
A dose-response analysis may be performed using the ELISA assay and conditions described above. The conditions for the dose-response ELISA are analogous to those described above. A series of, e.g., seven different concentrations may be analyzed. […] Dose-response curves may be plotted using percentage inhibition versus concentration of the compound, and EC50 and CC50 values may be generated for each compound with the maximal inhibition set as 100% and the minimal inhibition as 0%.

Structure (SMILES) | EC50 [nM]
Clc1ccc2[nH]c3c(c2c1)CCN(Cc1ccco1)C3c1ccco1 (stereo not shown) [Compound 265] | > 1000
O=[N+](O)c1ccc(C2NCCc3c2[nH]c2ccc(Br)cc32)cc1 (stereo not shown) [Compound 153] | 40 to 200

Same assay, conditions: HeLa cells, hypoxic conditions (1% O2)

Structure (SMILES) | EC50 [nM]
COC(=O)c1ccc(C2c3[nH]c4ccc(Cl)cc4c3CCN2C(=O)Oc2ccc(F)cc2)cc1 (stereo not shown) [Compound 579] | < 8

Same assay, conditions: Homo sapiens, HeLa cells under hypoxic conditions

Structure (SMILES) | EC50 [nM]
CCOC(=O)N1CCc2c([nH]c3ccc(Cl)cc23)C1c1ccc(OC)cc1 (stereo not shown) [Compound 2] | < 8
Clc1ccc2[nH]c3c(c2c1)CCNC3c1cc(Br)cc(Br)c1 (stereo not shown) [Compound 223] | 200 to 1000
CCCC(=O)N1CCc2c([nH]c3ccc(Cl)cc23)C1c1ccc(OC)c(OC)c1 (stereo not shown) [Compound 144] | 40 to 200
Brc1ccc(C2NCCc3c2[nH]c2ccc(Br)cc32)cc1 (stereo not shown) [Compound 157] | 40 to 200
CCOC(=O)N1CCc2c([nH]c3ccc(Cl)cc23)C1c1ccc(Br)cc1 (stereo not shown) [Compound 54] | 8 to 40
Clc1ccc2[nH]c3c(c2c1)CCNC3Cc1ccccc1 (stereo not shown) [Compound 251] | > 1000
COCCOCC(=O)N1CCc2c([nH]c3ccc(Br)cc23)C1c1ccc(C)cc1 (stereo not shown) [Compound 258] | > 1000
CC(C)c1ccc(C2c3[nH]c4ccc(Br)cc4c3CCN2C(=O)Oc2ccc(Cl)cc2)cc1 (stereo not shown) [Compound 354] | < 8
COc1ccc(C2c3[nH]c4ccc(Cl)cc4c3CCN2C(=O)O[C@H]2C[C@@H](C)CC[C@@H]2C(C)C)cc1 (stereo partly shown) [Compound 192] | 200 to 1000
COc1ccc2[nH]c3c(c2c1)CCNC3c1ccccc1 (stereo not shown) [Compound 322] | > 1000
CC(C)OC(=O)N1CCc2c([nH]c3ccc(Cl)cc23)C1c1ccc(Cl)cc1 (stereo not shown) [Compound 40] | < 8
CC(C)(C)OC(=O)N[C@@H](Cc1ccccc1)C(=O)N1CCc2c([nH]c3ccc(Cl)cc23)C1c1ccccc1 (stereo partly shown) [Compound 233] | > 1000
CCOC(=O)N1CCc2c([nH]c3ccc(Br)cc23)C1c1ccc(C)cc1 (stereo not shown) [#8] | < 8
Fc1cc(F)cc(C2NCCc3c2[nH]c2ccc(Cl)cc32)c1 (stereo not shown) [Compound 173] | 200 to 1000
CCOC(=O)N1CCc2c([nH]c3ccc(Cl)cc23)C1c1cc(=O)c2ccccc2o1 (stereo not shown) [Compound 126] | 40 to 200
CCOC(=O)N1CCc2c([nH]c3ccc(Br)cc23)C1c1ccc(F)c(F)c1 (stereo not shown) [Compound 78] | 8 to 40
CCC1NCCc2c1[nH]c1ccc(Cl)cc21 (stereo not shown) [Compound 298] | > 1000

Structure (SMILES) | EC50 [nM]
Clc1cccc(C2NCCc3c2[nH]c2ccc(Br)cc32)c1 (stereo not shown) [Compound 137] | 40 to 200
COc1ccc(C2c3[nH]c4ccc(C)cc4c3CCN2c2ncccn2)cc1 (stereo not shown) [Compound 342] | 40 to 200
Clc1ccc2[nH]c3c(c2c1)CCN(Cc1ccoc1)C3C1CCCCC1 (stereo not shown) [Compound 271] | > 1000
COC(=O)N1CCc2c([nH]c3ccc(Cl)cc23)C1c1cccc(Cl)c1 (stereo not shown) [Compound 104] | 8 to 40
CCOC(=O)N1CCc2c([nH]c3ccc(Cl)cc23)C1c1cccc(Cl)c1 (stereo not shown) [Compound 20] | < 8
c1ccc(COc2ccc(C3NCCc4c3[nH]c3ccc(OCc5ccccc5)cc43)cc2)cc1 (stereo not shown) [Compound 288] | > 1000
O=C(OCCCl)N1CCc2c([nH]c3ccc(Cl)cc23)C1c1cccc(Br)c1 (stereo not shown) [Compound 99] | 8 to 40
CC(=O)Nc1ccc(C2NCCc3c2[nH]c2ccc(Cl)cc32)cc1 (stereo not shown) [Compound 294] | > 1000
CC(=O)N1CCc2c([nH]c3ccc(Br)cc23)C1c1cccc(C(F)(F)F)c1 (stereo not shown) [Compound 80] | 8 to 40
CS(=O)(=O)c1ccc(C2c3[nH]c4ccc(Cl)cc4c3CCN2C(=O)N2CCOCC2)cc1 (stereo not shown) [Compound 309] | 8 to 40
Clc1ccc2[nH]c3c(c2c1)CCNC3c1ccc(OCCN2CCOCC2)cc1 (stereo not shown) [Compound 363] | > 1000
c1ccc(COc2ccc3[nH]c4c(c3c2)CCNC4c2ccoc2)cc1 (stereo not shown) [Compound 311] | > 1000
COc1ccc(C2c3[nH]c4ccc(Cl)cc4c3CCN2c2cnccn2)cc1 (stereo not shown) [Compound 1] | 8 to 40
COc1ccccc1C1NCCc2c1[nH]c1ccc(Cl)cc21 (stereo not shown) [Compound 301] | > 1000
COc1ccc(C2c3[nH]c4ccccc4c3CCN2C(=S)NC2CCCCC2)cc1 (stereo not shown) [Compound 312] | > 1000
COCC(=O)N1CCc2c([nH]c3ccc(Cl)cc23)C1c1ccc(OC)cc1 (stereo not shown) [Compound 376] | 200 to 1000
O=C(OCCCl)N1CCc2c([nH]c3ccc(Cl)cc23)C1c1ccc(Br)cc1 (stereo not shown) [Compound 58] | 8 to 40

Same assay, conditions: Homo sapiens, HeLa cells, hypoxic conditions (1% O2)

Structure (SMILES) | EC50 [nM]
COC(=O)c1ccc(C2c3[nH]c4ccc(Cl)cc4c3CCN2C(=O)Oc2ccccc2Cl)cc1 (stereo not shown) [Compound 590] | 8 to 40
CCOC(=O)N1CCc2c([nH]c3ccc(Br)cc23)C1c1ccc(C(F)(F)F)cc1 (stereo not shown) [Compound 434] | < 8
CCOC(=O)N1CCc2c([nH]c3ccc(Cl)cc23)C1c1cccc(CN2CCN(CCOC)CC2)c1 (stereo not shown) [Compound 567] | > 1000
CCOC(=O)N1CCc2c([nH]c3ccc(Cl)cc23)C1c1ccc(C(=O)N(C)CCCN(C)C)cc1 (stereo not shown) [Compound 558] | 200 to 1000
O=C(Oc1ccc(Cl)cc1)N1CCc2c([nH]c3ccc(Cl)cc23)C1c1ccc(OCCCn2ccnn2)cc1 (stereo not shown) [Compound 417] | < 8
CC/C=C/CCC1c2[nH]c3ccc(Cl)cc3c2CCN1C(=O)OCC (stereo not shown) [Compound 439] | < 8
COc1ccc(OC(=O)N2CCc3c([nH]c4ccc(Cl)cc34)C2c2ccc(OCC(O)CO)cc2)cc1 (stereo not shown) [Compound 635] | 8 to 40
CCOC(=O)N1CCc2c([nH]c3ccc(Cl)cc23)C1c1cccc(C(=O)N2CCN(C)CC2)c1 (stereo not shown) [Compound 529] | 200 to 1000
C=CCOc1ccc(C2c3[nH]c4ccc(Cl)cc4c3CCN2C(=O)Oc2ccc(F)cc2)cc1 (stereo not shown) [Compound 409] | < 8
CCOC(=O)N1CCc2c([nH]c3ccc(Cl)cc23)C1c1ccc(C(=O)N2CCOCC2)cc1 (stereo not shown) [Compound 492] | 40 to 200
COCCOCCOc1ccc(C2c3[nH]c4ccc(Cl)cc4c3CCN2C(=O)Oc2ccccc2Cl)cc1 (stereo not shown) [Compound 674] | 8 to 40
O=C(Oc1ccc(Cl)cc1)N1CCc2c([nH]c3ccc(Cl)cc23)C1c1ccc(OCCCCCCn2ccnc2)cc1 (stereo not shown) [Compound 790] | < 8
CC(C)C(=O)Nc1ccc(C2c3[nH]c4ccc(Cl)cc4c3CCN2C(=O)Oc2ccc(Cl)cc2)cc1 (stereo not shown) [Compound 482] | 40 to 200
CCOC(=O)N1CCc2c([nH]c3ccc(Cl)cc23)C1c1ccc(OCCCN2CCCC2)cc1 (stereo not shown) [Compound 449] | 8 to 40
Cc1ccc(OC(=O)N2CCc3c([nH]c4ccc(Cl)cc34)C2c2ccc(OCC(O)CO)cc2)cc1 (stereo not shown) [Compound 631] | < 8
O=C(Oc1ccc(Cl)cc1)N1CCc2c([nH]c3ccc(Cl)cc23)C1c1ccc(OCCCCCCN2CCCCC2)cc1 (stereo not shown) [Compound 787] | < 8
CNc1ncc(C2c3[nH]c4ccc(Cl)cc4c3CCN2C(=O)Oc2ccc(OC)cc2)cn1 (stereo not shown) [Compound 517] | 200 to 1000
CN(C)CCCOc1ccc(C2c3[nH]c4ccc(Cl)cc4c3CCN2C(=O)OCCF)cc1 (stereo not shown) [Compound 456] | 8 to 40
CCOC(=O)N1CCc2c([nH]c3ccc(Cl)cc23)C1c1cnc(NC)nc1 (stereo not shown) [Compound 506] | 40 to 200
CCOC(=O)N1CCc2c([nH]c3ccc(Cl)cc23)C1C(C)Cc1ccc(C(C)C)cc1 (stereo not shown) [Compound 523] | 200 to 1000
CN1CCN(CCCCOc2ccc(C3c4[nH]c5ccc(Cl)cc5c4CCN3C(=O)Oc3ccc(Cl)cc3)cc2)CC1 (stereo not shown) [Compound 704] | 40 to 200
CCOC(=O)N1CCc2c([nH]c3ccc(Cl)cc23)C1c1ccc(C(=O)NCCCN2CCCC2=O)cc1 (stereo not shown) [Compound 512] | 40 to 200
CCOC(=O)N1CCc2c([nH]c3ccc(Cl)cc23)C1C1CC=CCC1 (stereo not shown) [Compound 504] | 40 to 200
CCOC(=O)N1CCc2c([nH]c3ccc(Cl)cc23)C1CC(C)c1ccccc1 (stereo not shown) [Compound 508] | 40 to 200
CCOC(=O)N1CCc2c([nH]c3ccc(Cl)cc23)C1c1ccc(C(=O)N(C)CCc2ccccn2)cc1 (stereo not shown) [Compound 518] | 200 to 1000
CCOC(=O)N1CCc2c([nH]c3ccc(Cl)cc23)C1c1ccc(C(=O)N2CCN(CCOC)CC2)cc1 (stereo not shown) [Compound 469] | 8 to 40
O=C(Oc1ccc(F)cc1)N1CCc2c([nH]c3ccc(Cl)cc23)C1c1ccc(OCCCCCCn2cncn2)cc1 (stereo not shown) [Compound 781] | < 8
O=C(Oc1ccc(F)cc1)N1CCc2c([nH]c3ccc(Cl)cc23)C1c1ccc(OCCCCCCN2CCCCC2)cc1 (stereo not shown) [Compound 777] | < 8
COCCOCCOc1ccc(C2c3[nH]c4ccc(Cl)cc4c3CCN2C(=O)Oc2ccc(OC)cc2)cc1 (stereo not shown) [Compound 678] | 40 to 200

Same assay, conditions: Homo sapiens, HeLa cells, hypoxic conditions (1% O2, 5% CO2)

Structure (SMILES) | EC50 [nM]
O=C(Oc1ccccc1Cl)N1CCc2c([nH]c3ccc(Cl)cc23)C1c1ccc(OCCCn2cncn2)cc1 (stereo not shown) [Compound 926] | < 8
COc1ccc(OC(=O)N2CCc3c([nH]c4ccc(Cl)cc34)C2c2ccc(OCC3CCCN(C)C3)cc2)cc1 (stereo not shown) [Compound 981] | 40 to 200
CC(=O)N1CCN(CCCOc2ccc(C3c4[nH]c5ccc(Cl)cc5c4CCN3C(=O)Oc3ccc(Cl)cc3)cc2)CC1 (stereo not shown) [Compound 903] | < 8
O=C(Oc1ccc(Cl)cc1)N1CCc2c([nH]c3ccc(Cl)cc23)C1c1ccc(OCCn2ccnn2)cc1 (stereo not shown) [Compound 839] | 8 to 40
O=C(Oc1ccc(Cl)cc1)N1CCc2c([nH]c3ccc(Cl)cc23)C1c1ccc(OCC(O)Cn2ccnn2)cc1 (stereo not shown) [Compound 973] | 8 to 40
O=C(Oc1ccc(F)cc1)N1CCc2c([nH]c3ccc(Cl)cc23)C1c1ccc(OCCn2cccn2)cc1 (stereo not shown) [Compound 836] | 8 to 40
O=C(Oc1ccc(F)cc1)N1CCc2c([nH]c3ccc(Cl)cc23)C1c1ccc(OCCCn2cncn2)cc1 (stereo not shown) [Compound 892] | < 8
